The text below walks through data of article PMC3756062, “Identification of Putative Steroid Receptor Antagonists in Bottled Water: Combining Bioassays and High-Resolution Mass Spectrometry” (PLoS ONE, 2013).

The target of one test is T1, human androgen receptor (Homo sapiens, UniProt P10275).
T1 construct: expressed in transfected cells
T1 sequence (P10275 1-920): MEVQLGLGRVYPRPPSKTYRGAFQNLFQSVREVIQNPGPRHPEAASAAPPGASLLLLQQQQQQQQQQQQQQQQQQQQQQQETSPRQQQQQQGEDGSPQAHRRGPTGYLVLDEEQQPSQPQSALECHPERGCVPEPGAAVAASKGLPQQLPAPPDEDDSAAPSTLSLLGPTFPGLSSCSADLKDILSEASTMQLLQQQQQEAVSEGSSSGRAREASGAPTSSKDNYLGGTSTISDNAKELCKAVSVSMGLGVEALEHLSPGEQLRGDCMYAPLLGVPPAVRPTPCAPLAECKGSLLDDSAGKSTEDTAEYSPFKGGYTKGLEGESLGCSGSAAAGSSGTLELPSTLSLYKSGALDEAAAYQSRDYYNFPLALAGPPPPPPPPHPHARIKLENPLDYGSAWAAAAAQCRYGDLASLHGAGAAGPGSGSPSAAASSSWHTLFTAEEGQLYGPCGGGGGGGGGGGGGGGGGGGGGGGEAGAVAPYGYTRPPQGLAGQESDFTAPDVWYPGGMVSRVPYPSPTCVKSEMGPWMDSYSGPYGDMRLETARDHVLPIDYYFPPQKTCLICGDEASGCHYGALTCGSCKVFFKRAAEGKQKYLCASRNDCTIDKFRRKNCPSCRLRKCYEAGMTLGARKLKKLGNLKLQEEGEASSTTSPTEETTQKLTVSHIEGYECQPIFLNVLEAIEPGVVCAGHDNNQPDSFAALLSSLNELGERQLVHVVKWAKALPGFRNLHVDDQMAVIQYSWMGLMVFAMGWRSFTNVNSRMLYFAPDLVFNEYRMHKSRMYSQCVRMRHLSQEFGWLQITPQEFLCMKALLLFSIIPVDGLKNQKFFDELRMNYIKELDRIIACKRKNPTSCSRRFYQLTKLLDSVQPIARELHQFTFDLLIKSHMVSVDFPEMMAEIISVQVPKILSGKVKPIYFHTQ
Description: Yeast Antiandrogen Screen (YAAS), reporter gene assay. Type of test: cell-based. As to conditions: coincubated with 2.5 nM testosterone; for IC50: authentic standards 300 nM to 1 mM in ethanol, 24 h, three experiments, four-parameter logistic function, read-out: IC50, antiandrogenic in the YAAS. As for the experimental part:
(§1) The antiestrogenic and antiandrogenic activity of bottled water extracts was evaluated in reporter gene assays for human estrogen receptor alpha (Yeast Antiestrogen Screen, YAES) and human androgen receptor (Yeast Antiandrogen Screen, YAAS). To detect antagonists, Yeast Estrogen Screen and Yeast Androgen Screen were modified to analyze samples in the presence of the endogenous ligand of each receptor (17β-estradiol, testosterone). Receptor antagonists present in the sample cause a displacement of the endogenous ligand resulting in a decreased reporter gene signal.
(§2) The general assay procedures have been described previously, [24]. Briefly, SPE extracts were diluted 480 fold in assay medium and coincubated with 30 pM 17β-estradiol (YAES) or 2.5 nM testosterone (YAAS) dissolved in ethanol. Negative controls, solvent controls (ethanol and DMSO) with and without endogenous ligand, and positive controls (ligand coincubated with a known receptor antagonist, YAES: 80 µM hydroxytamoxifen, YAAS: 50 µM flutamide) were included in each experiment. The maximum solvent concentration was 0.4% v/v in all cases. Samples were analyzed in eight replicates, controls in 8–48 replicates. After 24 hours incubation at 30°C turbidity was read to assess cytotoxicity and β-galactosidase activity was determined. Samples from three extractions were tested in three independent YAES and YAAS experiments each.
(§3) Inhibition data is reported as means of three SPE extracts per sample analyzed in three experiments (with eight replicates each) resulting in a sample size of 63–72. The reported antagonistic activity corresponds to a sample volume equivalent to 3.75 mL bottled water.
Chemicals with best matching fragmentation and plausible structure (DEHM, DOM, DEHF, DOF) were purchased as authentic standards. Their antiestrogenic and antiandrogenic activity was evaluated in the bioassays (three experiments) as described above in concentrations ranging from 300 nM to 1 mM (in ethanol).
(In general: In a reporter assay the amount or activity of a reporter protein is the signal.)

Test [1] concerns the target T2, human estrogen receptor alpha (Homo sapiens, UniProt P03372).
T2 construct: expressed in transfected cells
T2 sequence (P03372 1-595): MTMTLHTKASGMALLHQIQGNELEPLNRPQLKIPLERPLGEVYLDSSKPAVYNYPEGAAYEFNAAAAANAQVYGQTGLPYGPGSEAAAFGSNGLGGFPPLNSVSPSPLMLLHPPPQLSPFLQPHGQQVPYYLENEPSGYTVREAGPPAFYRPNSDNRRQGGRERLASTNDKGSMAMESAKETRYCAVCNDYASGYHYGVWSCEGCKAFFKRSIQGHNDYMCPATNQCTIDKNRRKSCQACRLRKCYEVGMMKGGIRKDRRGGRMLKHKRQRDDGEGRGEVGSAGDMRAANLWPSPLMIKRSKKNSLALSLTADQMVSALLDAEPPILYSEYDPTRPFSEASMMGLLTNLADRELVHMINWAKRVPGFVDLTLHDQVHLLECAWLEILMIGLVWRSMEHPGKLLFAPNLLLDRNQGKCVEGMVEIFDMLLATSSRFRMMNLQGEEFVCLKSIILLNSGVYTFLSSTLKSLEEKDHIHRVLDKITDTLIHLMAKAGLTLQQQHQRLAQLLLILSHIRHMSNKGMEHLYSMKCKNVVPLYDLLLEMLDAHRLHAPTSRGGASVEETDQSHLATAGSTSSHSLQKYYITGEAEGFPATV
The experiment in a line: Yeast Antiestrogen Screen (YAES), reporter gene assay. Type of test: cell-based. The following applies: coincubated with 30 pM 17β-estradiol; for IC50: authentic standards 300 nM to 1 mM in ethanol, 24 h, three experiments, four-parameter logistic function, read-out: IC50, antiestrogenic in the YAES. The method, then: as §1, §2, §3
Their antiestrogenic and antiandrogenic activity was evaluated in the bioassays (three experiments) as described above in concentrations ranging from 300 nM to 1 mM (in ethanol).

As for `CCCCC(CC)COC(=O)/C=C/C(=O)OCC(CC)CCCC` (stereo not shown) [DEHF, 2-Butenedioic acid (2E)-, 1,4-bis(2-ethylhexyl) ester], the “antiandrogenic activity in the YAAS (result in words)” value (“antiandrogenic activity in the YAAS” below) on human androgen receptor is “inactive”.

In the case of `CCCCC(CC)COC(=O)/C=C\C(=O)OCC(CC)CCCC` (stereo not shown) [DEHM, 2-Butenedioic acid (2Z)-, 1,4-bis(2-ethylhexyl) ester], the “antiandrogenic activity in the YAAS” value on human androgen receptor is “inactive”.

As usually defined, the IC50 is the concentration that gives 50% inhibition. Consider `CCCCCCCCOC(=O)/C=C/C(=O)OCCCCCCCC` [DOF, 2-Butenedioic acid (2E)-, 1,4-dioctyl ester], for which, at human androgen receptor, the IC50 worked out at 15.8 µM and the “antiandrogenic activity in the YAAS” value is “partially”. In test [1], the IC50 worked out at 35.4 µM and the “antiestrogenic activity in the YAES (result in words)” value was “partially”.

As to `CCCCCCCCOC(=O)/C=C\C(=O)OCCCCCCCC` [DOM, 2-Butenedioic acid (2Z)-, 1,4-dioctyl ester], on human androgen receptor, the IC50 turned out to be 245 µM and the “antiandrogenic activity in the YAAS” value is “at high concentrations”. Besides, in test [1], the IC50 was 107 µM and the “antiestrogenic activity in the YAES (result in words)” value is given as “at high concentrations”.
